Earlier results, collected in PubChem BioAssay AID1259409 (Chemical Carcinogenesis Research Information System (CCRIS), 2018).
Values joined by “and” are separate entries in the source; they are usually repeats but may differ in a detail not shown here. Identical values can stand only once.

System: rodent chemically induced tumor inhibition, incidence and multiplicity
Assay: CCRIS tumor inhibitor studies

S=C=NCCc1ccccc1
tumour outcome (control, treated, inhibition, significance) (Carcinogen: 4-(N-NITROSOMETHYLAMINO)-1-(3-PYRIDYL)-1-BUTANONE, 64091-91-4, Dose [Inhibitor]: 0, 3 UMOL/G/DIET BEGINNING 1 WK PRIOR TO CARCINOGEN TREATMENT AND CONTINUING FOR 21 WK (STUDY DURATION: 104 WK), Route [Inhibitor]: ORAL, Species: RAT, Strain/Sex: F344/MALE, Target Tissue: Type of Lesion: NASAL CAVITY: BENIGN TUMOR, Dose [Carcinogen]: 1.76 MG/KG 3/WK FOR 20 WK, Promoter: NONE USED): 8/40 (20%), 6/40 (15%), 25%, not calculated | tumour outcome (control, treated, inhibition, significance) (Carcinogen: 4-(N-NITROSOMETHYLAMINO)-1-(3-PYRIDYL)-1-BUTANONE, 64091-91-4, Dose [Inhibitor]: 0, 3 UMOL/G/DIET BEGINNING 1 WK PRIOR TO CARCINOGEN TREATMENT AND CONTINUING FOR 21 WK (STUDY DURATION: 104 WK), Route [Inhibitor]: ORAL, Species: RAT, Strain/Sex: F344/MALE, Target Tissue: Type of Lesion: NASAL CAVITY: SQUAMOUS-CELL CARCINOMA, Dose [Carcinogen]: 1.76 MG/KG 3/WK FOR 20 WK, Promoter: NONE USED): 3/40 (8%), 1/40 (3%), 63%, not calculated | tumour outcome (control, treated, inhibition, significance) (Carcinogen: 4-(N-NITROSOMETHYLAMINO)-1-(3-PYRIDYL)-1-BUTANONE, 64091-91-4, Dose [Inhibitor]: 0, 5 UMOL/D FOR 4 CONSECUTIVE DAYS (STUDY DURATION: 16.5 WK), Route [Inhibitor]: GAVAGE, Species: MOUSE, Strain/Sex: STRAIN-A/FEMALE, Target Tissue: Type of Lesion: LUNG: ADENOMA, Dose [Carcinogen]: 10 UMOL ONCE 2 HR POST LAST AGENT DOSE, Promoter: NONE USED): 100%, 89%, 11%, not calculated and 100%, 93%, 7%, not calculated | tumour outcome (control, treated, inhibition, significance) (Carcinogen: 4-(N-NITROSOMETHYLAMINO)-1-(3-PYRIDYL)-1-BUTANONE, 64091-91-4, Dose [Inhibitor]: 0, 25 UMOL/D FOR 4 CONSECUTIVE DAYS (STUDY DURATION: 16.5 WK), Route [Inhibitor]: GAVAGE, Species: MOUSE, Strain/Sex: STRAIN-A/FEMALE, Target Tissue: Type of Lesion: LUNG: ADENOMA, Dose [Carcinogen]: 10 UMOL ONCE 2 HR POST LAST AGENT DOSE, Promoter: NONE USED): 100%, 30%, 70%, p<0.01 | tumour outcome (control, treated, inhibition, significance) (Carcinogen: 7,12-DIMETHYLBENZ[A]ANTHRACENE, 57-97-6, Dose [Inhibitor]: 0, 600 PPM IN DIET FOR DURATION OF STUDY BEGINNING 1 WK PRIOR TO CARCINOGEN DOSE (STUDY DURATION: 107 D), Route [Inhibitor]: ORAL, Species: RAT, Strain/Sex: SPRAGUE-DAWLEY/FEMALE, Target Tissue: Type of Lesion: MAMMARY GLAND: ADENOCARCINOMA, Dose [Carcinogen]: 12 MG ONCE, Promoter: NONE USED): 70%, 85%, -21%, not significant | tumour outcome (control, treated, inhibition, significance) (Carcinogen: 7,12-DIMETHYLBENZ[A]ANTHRACENE, 57-97-6, Dose [Inhibitor]: 0, 1200 PPM IN DIET FOR DURATION OF STUDY BEGINNING 1 WK PRIOR TO CARCINOGEN DOSE (STUDY DURATION: 107 D), Route [Inhibitor]: ORAL, Species: RAT, Strain/Sex: SPRAGUE-DAWLEY/FEMALE, Target Tissue: Type of Lesion: MAMMARY GLAND: ADENOCARCINOMA, Dose [Carcinogen]: 12 MG ONCE, Promoter: NONE USED): 70%, 75%, -7%, not significant | tumour outcome (control, treated, inhibition, significance) (Carcinogen: 7,12-DIMETHYLBENZ[A]ANTHRACENE, 57-97-6, Dose [Inhibitor]: 5.5 MG/G DIET AT AGE 9 WK SIMULTANEOUSLY WITH CARCINOGEN 3/WK FOR 4 WK (STUDY DURATION: 20 WK), Route [Inhibitor]: ORAL, Species: MOUSE, Strain/Sex: ICR/FEMALE, Target Tissue: Type of Lesion: FORESTOMACH: TUMOR, Dose [Carcinogen]: 0.05 MG/G DIET AT AGE 9 WK 3/WK FOR 4 WK, Promoter: NONE USED): 93%, 12%, 87%, p<0.001 | tumour outcome (control, treated, inhibition, significance) (Carcinogen: 7,12-DIMETHYLBENZ[A]ANTHRACENE, 57-97-6, Dose [Inhibitor]: 5.5 MG/G DIET AT AGE 9 WK SIMULTANEOUSLY WITH CARCINOGEN 3/WK FOR 4 WK (STUDY DURATION: 20 WK), Route [Inhibitor]: ORAL, Species: MOUSE, Strain/Sex: ICR/FEMALE, Target Tissue: Type of Lesion: LUNG: ADENOMA, Dose [Carcinogen]: 0.05 MG/G DIET AT AGE 9 WK 3/WK FOR 4 WK, Promoter: NONE USED): 100%, 89%, 11%, not significant | tumour outcome (control, treated, inhibition, significance) (Carcinogen: 7,12-DIMETHYLBENZ[A]ANTHRACENE, 57-97-6, Dose [Inhibitor]: 55 MG ONCE 4 HR BEFORE DMBA TREATMENT (STUDY DURATION: 18 WK), Route [Inhibitor]: INTRAGASTRIC, Species: RAT, Strain/Sex: SPRAGUE-DAWLEY/FEMALE, Target Tissue: Type of Lesion: MAMMARY GLAND: TUMOR, Dose [Carcinogen]: 12 MG IN 1 ML OLIVE OIL AT AGE 7 WK, Promoter: NONE USED): 100%, 43%, 57%, p<0.001 | tumour outcome (control, treated, inhibition, significance) (Carcinogen: BENZO[A]PYRENE [50-32-8], Dose [Inhibitor]: 0.3 UMOL/G IN DIET FOR 10 WK BEGINNING 1 WK PRIOR TO FIRST CARCINOGEN DOSE (STUDY DURATION: 28 WK), Route [Inhibitor]: ORAL, Species: MOUSE, Strain/Sex: A/J/FEMALE, Target Tissue: Type of Lesion: LUNG: TUMOR, Dose [Carcinogen]: 3 UMOL IN 0.1 ML COTTONSEED OIL 1X/WK FOR 8 WK (STUDY DURATION: 28 WK), Promoter: NONE): 100%, 100%, 0%, not calculated | tumour outcome (control, treated, inhibition, significance) (Carcinogen: BENZO[A]PYRENE [50-32-8], Dose [Inhibitor]: 1 UMOL/G IN DIET FOR 10 WK BEGINNING 1 WK PRIOR TO FIRST CARCINOGEN DOSE (STUDY DURATION: 28 WK), Route [Inhibitor]: ORAL, Species: MOUSE, Strain/Sex: A/J/FEMALE, Target Tissue: Type of Lesion: LUNG: TUMOR, Dose [Carcinogen]: 3 UMOL IN 0.1 ML COTTONSEED OIL 1X/WK FOR 8 WK (STUDY DURATION: 28 WK), Promoter: NONE): 100%, 100%, 0%, not calculated | tumour outcome (control, treated, inhibition, significance) (Carcinogen: BENZO[A]PYRENE [50-32-8], Dose [Inhibitor]: 3 UMOL/G IN DIET FOR 10 WK BEGINNING 1 WK PRIOR TO FIRST CARCINOGEN DOSE (STUDY DURATION: 28 WK), Route [Inhibitor]: ORAL, Species: MOUSE, Strain/Sex: A/J/FEMALE, Target Tissue: Type of Lesion: LUNG: TUMOR, Dose [Carcinogen]: 3 UMOL IN 0.1 ML COTTONSEED OIL 1X/WK FOR 8 WK (STUDY DURATION: 28 WK), Promoter: NONE): 100%, 100%, 0%, not calculated | outcome (Carcinogen: BENZO[A]PYRENE, 50-32-8, Dose [Inhibitor]: 0, 5 UMOL IN ACETONE 4 HR PRIOR TO CARCINOGEN DOSE (STUDY DURATION: 20 WK), Route [Inhibitor]: DERMAL, Species: MOUSE, Strain/Sex: STRAIN-A/FEMALE, Target Tissue: Type of Lesion: SKIN: TUMOR, Dose [Carcinogen]: 0.1 UMOL IN ACETONE ONCE, Promoter: 12-O-TETRADECANOYLPHORBOL-13-ACETATE, 16561-29-8): 70%, 65%, 7%, not significant at 15 wk; 95%, 85%, 11%, not significant at 20 wk | tumour outcome (control, treated, inhibition, significance) (Carcinogen: BENZO[A]PYRENE, 50-32-8, Dose [Inhibitor]: 0, 6.7 UMOL IN COTTONSEED OIL 15 MIN PRIOR TO CARCINOGEN DOSES 1/2 WK FOR 3 TREATMENTS (STUDY DURATION: 26 WK), Route [Inhibitor]: GAVAGE, Species: MOUSE, Strain/Sex: STRAIN-A/FEMALE, Target Tissue: Type of Lesion: FORESTOMACH: TUMOR, Dose [Carcinogen]: 7.9 UMOL IN COTTONSEED OIL 1/2 WK FOR 3 TREATMENTS, Promoter: NONE USED): 95%, 90%, 5%, not significant | tumour outcome (control, treated, inhibition, significance) (Carcinogen: BENZO[A]PYRENE, 50-32-8, Dose [Inhibitor]: 0, 6.7 UMOL IN COTTONSEED OIL 15 MIN PRIOR TO CARCINOGEN DOSES 1/2 WK FOR 3 TREATMENTS (STUDY DURATION: 26 WK), Route [Inhibitor]: GAVAGE, Species: MOUSE, Strain/Sex: STRAIN-A/FEMALE, Target Tissue: Type of Lesion: LUNG: TUMOR, Dose [Carcinogen]: 7.9 UMOL IN COTTONSEED OIL 1/2 WK FOR 3 TREATMENTS, Promoter: NONE USED): 95%, 90%, 5%, not significant
